Data published in patent US20240226063A1, “SOLUBLE ANALOGUES OF 6BIO THEREOF AND IMPLEMENTATION THEREOF” (JAWAHARLAL NEHRU CENTRE FOR ADVANCED SCIENTIFIC RESEARCH, priority 2021, published 2024).
Entries after “also recorded” stand apart in the source; their conditions may differ.

Tests used:
MPTP mice = experiment: MPTP mouse model of Parkinsonism (rotarod and open field test); type: in vivo; conditions: 5 mg/kg intraperitoneal, administered along with MPTP
Experimental: The effect of 6-BIO on neurodegenerative disorders such as Parkinson's was evaluated based on testing the ability of 6-BIO on toxic protein aggregates such as the SNCA/a-synuclein protein in mice (FIG. 9) and the modulation of the autophagy flux (FIG. 10). MPTP is a widely accepted mouse model to study Parkinsonism. […] For the study, mice were intraperitoneally injected with 6-BIO at a concentration of 5 mg/kg based on the body weight of the mice.
FIG. 9 and FIG. 10 illustrated the results observed on the effect of 6-BIO and its derivatives on neurodegenerative disorders. FIG. 9 depicts the effect of administration of 5 mg/kg of 6-BIO on (A) the latency to fall of various cohorts namely placebo mice, MPTP mice (Parkinsonian mice) and the MPTP mice administered with 6-BIO (MPTP+Co) was assessed by rotarod test (B) Representative trajectory maps of all mentioned cohorts as analysed by open field test. (C) Periphery distance travelled by all indicated cohorts as assessed by open field test. […]

Syngap1^+/− mice [1] = experiment: Long term potential; type: in vivo; conditions: 5 mg/kg intraperitoneal
Syngap1^+/− mice [2] = experiment: Fluoroethyl-based seizure threshold; type: in vivo; conditions: intraperitoneal, Group III (P30-80), recorded P80
Experimental: For investigating the effect of 6-BIO on the wild type and Syngap1^+/− mice in group III (P30-P80), mice were injected intraperitoneally with 6-BIO. The subsequent fluoroethyl-based seizure threshold i.e., susceptibility of mice to epileptic seizures was evaluated and plotted as grouped data showing individual points for the involuntary and rhythmic muscular contractions and relaxations referred to as clonus.

Syngap1^+/− mice [3] = experiment: Social novelty test (social interaction and social preference); type: in vivo; conditions: for Social Interference (social interaction, time with stranger 1 vs empty jar) / Social Preference (time with stranger 2 vs stranger 1): 5 mg/kg intraperitoneal
Experimental: (§1) The ability of 6-BIO on the behavioural deficits related to neurodevelopmental disorders was observed based on its theoretical ability to correct synaptic plasticity, EGABA, and behavioural dysfunction in mice with mutated Syngap1 gene. Two populations of mice tested were: wild type (WT) mice and mice with mutated Syngap1 gene referred to as Syngap1^+/− mice. […] In the control group and the Syngap1^+/− mice, the subjects were administered with 5 mg/kg of 6-BIO based on the bodyweight of the subject. […] For example, 2-9, male mice were used.
Social Novelty Test: Similar to the novel object recognition in Example 2, the social novelty test was performed for all age groups at 80 days. The social novelty test was performed based on the social interaction (SI) and social preference (SP) of the control wild type and Syngap1^+/− mice and wild type and Syngap1^+/− treated with 6-BIO. The social interaction was observed based on the time spent by the mice in isolation in comparison to time spent with one other mouse (stranger 1) and the social preference was observed based on the time spent with two different mice (stranger 1 and stranger 2)

Syngap1^+/− mice [4] = experiment: Novel object recognition test (memory); type: in vivo; conditions: for Novel Object Recognition (memory, discrimination index): 5 mg/kg intraperitoneal
Experimental: as §1
The wild type and Syngap1^+/− mice in the absence of any treatment were compared with the mice intra-peritoneally injected with 6-BIO and their behaviour was recorded with regards to recognition of a familiar object versus reaction to a novel object.

Syngap1^+/− mice [5] = experiment: EGABA, Cl^− reversal potential; type: in vivo; conditions: 5 mg/kg intraperitoneal, Group I (P10-16), recorded P16
Syngap1^+/− mice [6] = experiment: Open field test (hyperactivity/motor function and anxiety); type: in vivo; conditions: 5 mg/kg intraperitoneal
Experimental: as §1
Syngap1^+/− mice in groups I, II and III. […]

autophagy flux = experiment: Autophagy flux (levels of autophagosomes and autolysosomes); type: cell-based; conditions: cells, compared to growth media control
Excerpt: The derivatives of 6-BIO such as the compound 6-methoxyindirubin oxime (6-MIO), compound 50 and compound 51 were synthesized to improve their water solubility. The effect of 6-BIO and the aforementioned derivatives of 6-BIO on autophagy flux in the form of autophagosomes and autolysosomes are depicted in FIG. 10. […] Thus, the derivatives have a better potency to restore neuronal function to wild type level in neurodevelopmental disorders and play a neuroprotective role in neurodegeneration.

[7] = Group II (P10-80), recorded P42/P80
[8] = Group III (P30-80), recorded P80

For `O=C1Nc2cc(Br)ccc2/C1=C1/Nc2ccccc2/C1=N\O` [6-BIO, (2′Z, 3′E)-6-Bromoindirubin-3′-oxime], the “Effect on MPTP-induced neurodegeneration (rotarod latency to fall, open field periphery distance)” value (MPTP mice) was “protects neurons from degeneration”, the Long term potential (Syngap1^+/− mice [1]; [7]) was “Corrected” and the Long term potential (Syngap1^+/− mice [1]; [8]) was “Corrected”. For the same compound, the “Seizure threshold (fluoroethyl-based, tonic-clonic)” value (Syngap1^+/− mice [2]) was “corrected the seizure threshold”, the “Social Interference (social interaction, time with stranger 1 vs empty jar)” value (Syngap1^+/− mice [3]; Group I (P10-16), recorded P80) was “Corrected” and the “Social Preference (time with stranger 2 vs stranger 1)” value (Syngap1^+/− mice [3]; Group I (P10-16), recorded P80, 5 mg/kg) was “lack of improvement”. The “Social Interference (social interaction, time with stranger 1 vs empty jar)” value (Syngap1^+/− mice [3]; [7]) was “Corrected”, the “Social Preference (time with stranger 2 vs stranger 1)” value (Syngap1^+/− mice [3]; [7]) was “Corrected” and the “Social Interference (social interaction, time with stranger 1 vs empty jar)” value (Syngap1^+/− mice [3]; [8]) was “Corrected”. For the same compound, the “Social Preference (time with stranger 2 vs stranger 1)” value (Syngap1^+/− mice [3]; [8]) was “Corrected”, the “Social interaction: time spent with stranger 1 as compared to the empty jar” value (Syngap1^+/− mice [3]; all age groups, recorded at P80) was “comparable to wild type mice” and the “Novel Object Recognition (memory, discrimination index)” value (Syngap1^+/− mice [4]; Group I (P10-16), recorded P80) was “Corrected”. For the same compound, the “Novel Object Recognition (memory, discrimination index)” value (Syngap1^+/− mice [4]; [7]) was “Corrected”, the “Novel Object Recognition (memory, discrimination index)” value (Syngap1^+/− mice [4]; Group III (P30-80), recorded P80, 5 mg/kg) was “corrected the memory deficits” and the “Memory deficits (novel object recognition, discrimination index)” value (Syngap1^+/− mice [4]; all three age groups, behaviour at 80 days) was “substantially corrected memory deficits”. The “EGABA, Cl^− reversal potential” value (Syngap1^+/− mice [5]) was “Corrected”, the “Open field, Anxiety (number of entries in the centre)” value (“Open field, Anxiety” for short) (Syngap1^+/− mice [6]; Group I (P10-16), recorded P16) was “anxiety was corrected” and the “Open field, Motor function (hyperactivity, total distance travelled)” value (“Open field, Motor function” for short) (Syngap1^+/− mice [6]; Group I (P10-16), recorded P16) was “hyperactivity was corrected”. For the same compound, the “Open field, Anxiety” value (Syngap1^+/− mice [6]; Group I (P10-16), recorded P80) was “anxiety was corrected; also recorded: ameliorates”, the “Open field, Motor function” value (Syngap1^+/− mice [6]; Group I (P10-16), recorded P80) was “partial correction of hyperactivity; also recorded: ameliorates hyperactivity” and the “Open field, Anxiety” value (Syngap1^+/− mice [6]; [7]) was “anxiety was corrected”. For the same compound, the “Open field, Motor function” value (Syngap1^+/− mice [6]; [7]) was “partial correction was observed”, the “Open field, Anxiety” value (Syngap1^+/− mice [6]; [8]) was “partial correction of the anxiety” and the “Open field, Motor function” value (Syngap1^+/− mice [6]; [8]) was “no rescue behaviour”. The Levels of autophagosomes (autophagy flux) was “increased”.

In the case of `COc1ccc2c(c1)NC(=O)C2=C1Nc2ccccc2C1=NO` [6-MIO, 6-methoxyindirubin oxime], the Levels of autolysosomes (autophagy flux) is reported as “increased” and the Levels of autophagosomes (autophagy flux) is reported as “increased”.

In the case of `O=C1Nc2cc(Br)ccc2/C1=C1/Nc2ccccc2/C1=N\O` [compound 50, (2Z,3E)-6′-bromo-3-(hydroxyimino)-[2,3′-biindolinylidene]-2′-one], the Levels of autolysosomes (autophagy flux) is reported as “increased”.

`O=C1Nc2cc(Br)ccc2/C1=C1/Nc2ccccc2/C1=N\OCCO` [compound 51, (2Z,3E)-6′-bromo-3-((2-hydroxyethoxy)imino)-[2,3′-biindolinylidene]-2′-one] was tested, and the Levels of autolysosomes (autophagy flux) was “increased” and the Levels of autophagosomes (autophagy flux) was “increased”.
